This passage reports activity results from patent publication US8952003B2, “Sterol derivative” (Kyowa Hakko Kirin Co., Ltd, priority 2009, dated 2015).

The assay has as its system Rat adult neural stem cell line ANSC-7 cells. Put plainly: Proliferation promoting activity on neural stem cells (Test Example 1). It counts as cell-based. The following applies: at 10 nmol/L, relative value, negative control (DMSO) = 100%, wells without cells = 0%, absorbance at 490 nm. The procedure:
Rat adult neural stem cell line ANSC-7 cells prepared by the method described in the following Reference Test Example 1 were suspended in assay medium at a density of 1.6×10^5 cells/mL; inoculated at 0.1 mL in a 96 well plate (manufactured by Costar) of which surface was coated with polyornithine and laminin; and cultured overnight at 37° C. under an atmosphere of 5% CO2. Thereafter, 50 μL of the culture supernatant was removed, and 50 μL of a test compound which was serially diluted with the assay medium to 2 times of the final concentration or DMSO (negative control) was added to each well. For the serial dilution of a test compound, non-specific adsorption was minimized by using ProteoSave 96 U plates (manufactured by SUMILON), siliconized 1.5 mL tubes (manufactured by Assist) and Pitarack siliconized tips (manufactured by Nacalai). After the culturing for 48 hours, 50 μL of the culture supernatant was replaced by 50 μL of the assay medium containing 0.1% bovine fetal serum. Furthermore, after the culturing for 48 hours, Living Cell Count Reagent SF (manufactured by Nacalai Tesque) was added at the volume of 10 μL per well to the medium. After the culturing for 3 hours at 37° C. in the incubator which was set at 5% CO2, the resulting solution was stirred for one minute and then the absorbance at 490 nm (control wavelength 655 nm) was measured by using Microplate Spectrophotometer Emax (manufactured by Molecular Devices). By regarding the measured value of well to which the cells were not inoculated as 0%, and the measured value of negative control as 100%, relative values in the test compound addition group were calculated.
After putting a 7-week-old Sprague Dawley Rat to sleep by ether anesthesia and subsequent decapitation, the skull was cut open from the parietal region to extract the brain. Under a microscope, tissues including circumventricular region were isolated from the extracted brain by using ophthalmic scissors and tweezers. The tissues including circumventricular region were cut into fragments of about 1 mm^3 using ophthalmic scissors and scalpels and then subjected to 30 minutes of digestion reaction at 37° C. in 5 mL of Hanks' buffer (HBSS buffer, manufactured by Invitrogen) containing 2.5 U/mL of papain, 250 U/mL of DNase (all manufactured by Worthington, Freehold, N.J.) and 1 U/mL of a neutral protease (Dispase, manufactured by Boehringer-Mannheim Corp.). The mixture of cells and tissues obtained by the reaction was washed three times with DMEM (manufactured by Invitrogen) containing 10% fetal bovine serum (manufactured by Hyclone) and then dissolved in the DMEM containing 10% fetal bovine serum, followed by removing the undigested materials using a nylon mesh of […].
The resulting crude cells extract was cultured overnight on a culture dish of 10 cm, in an incubator of 37° C. using DMEM/F12 medium (manufactured by Invitrogen) containing 10% fetal bovine serum. On the next day, the medium was replaced with DMEM/F12 containing 1% of N-2 additives (manufactured by Invitrogen) and 20 ng/mL of FGF 2 (manufactured by Pepro Tech) and the culturing was started. Once in 3 days, half of the medium was replaced with new DMEM/F12 containing 1% of N-2 additives and 20 ng/mL of FGF 2 and the culturing was continued.
When a small colony consisting of small cells was formed, it was treated with 1% trypsin for 30 seconds to 1 minute, and the cells detached were harvested. The harvested cells were inoculated on a multiple well culture dish (manufactured by Fisher Scientific) which had been coated at room temperature overnight using 10 μg/mL of polyornithine (manufactured by Sigma) and at 37° C. overnight using 5 μg/mL of mouse EHS tumor-derived laminin (Becton Dickinson), and the culturing was continued.
By continuing the above-mentioned culturing, small cells having small protrusion and thickness were concentrated. The cells were used as adult neural stem cells in the above-mentioned test (Test Example 1).

Where only a bound is given, the exact number is not on record here.

On to `CC(CCC[C@H](C)[C@H]1CC[C@H]2C3=C(CC[C@]12C)[C@@]1(C)CC[C@H](O)C[C@@H]1C(=O)O3)C(=O)O` (stereo partly shown) [Compound 80, 7-Oxa-3-hydroxy-cholest-8(9)-en-6-on-26-acid], for which the activity at 0.01 µM was no less than 125%.
